Test results reported in paper PMC11003925, “Antimicrobial activity and properties of de novo design of short synthetic lipopeptides” (Folia Microbiologica, 2024).
In brackets after ≈: the same amount, converted by molar mass. Residues, ends and D or L forms follow the SMILES beside them. *: point of attachment. Palmitoyl = CCCCCCCCCCCCCCCC(=O)*

How the values were obtained:
A. baumannii DBM 3183 = experiment: microbe, parasite or virus in culture; format: cell-based, Acinetobacter baumannii; details: DBM 3183, 25 h
Procedure: (§1) A Bioscreen C automated microbiology growth curve analysis system (Growth Curves, Piscataway, NJ, USA) was used for the quantitative determination of antimicrobial activity (minimal inhibitory concentration, MIC) of PAL/LCA-peptides. Optical density was measured with a wide bandpass filter (wavelength range 420–580 nm) at regular intervals and temperatures. This assay was performed in a special microtiter plate (10 × 10 wells) that allowed the simultaneous testing of a large number of samples against several microorganisms. The total testing volume was 100 µL, obtained by mixing 10 µL of microbial culture with OD600 equal to 0.1 with growth medium and a solution of the tested compounds. The positive controls were vancomycin and tetracycline for Bacillus subtilis (100 µg/mL) for Gram-positive bacteria, kanamycin, and tetracycline for Acinetobacter baumannii (100 µg/mL) for Gram-negative bacteria, and clotrimazole or amphotericin (100 µg/mL) for fungi. The maximal concentration of tested lipoproteins was 1 mg/mL. A pure growth medium was used as the negative control. The measurement period was 25 h. The lowest concentration with a 100% inhibition effect for 24 h of incubation was chosen as the MIC. The antibacterial activity of each compound was expressed as the minimum inhibitory concentration MIC (MIC is the lowest concentration of the compound needed to inhibit the growth of bacterial cells) and IC50 (IC50 is the concentration of the compound needed to inhibit the growth of bacterial cells by 50%).

Ps. aeruginosa DBM 3081 = format: cell-based, Pseudomonas aeruginosa; details: 25 h
Procedure: as §1

B. subtilis DBM 3006 = format: cell-based, Bacillus subtilis
Procedure: as §1

M. luteus DBM 3053 = format: cell-based, Micrococcus luteus
Procedure: as §1

Staph. aureus DBM 3002 = format: cell-based, Staphylococcus aureus
Procedure: as §1

Staph. aureus MRSA1 [1] = format: cell-based, Staphylococcus aureus
Procedure: as §1

C. tropicalis DBM 2166 = format: cell-based, Candida tropicalis
Procedure: as §1

Staph. aureus MRSA1 [2] = format: cell-based, Staphylococcus aureus; details: 24 h, 2
Procedure: This assay was used to determine how quick the effect of PAL/LCA-peptides is on bacteria, as well as whether the activity of these compounds is dependent on the presence of active bacterial metabolism (Kamysz et al. [2007]). The bacterial cultures were incubated overnight at 37 °C in Mueller–Hinton’s broth 2 or potassium phosphate buffer (0.1 M, pH 7). Cultures were diluted to OD600 equal to 0.1 and divided into 2 samples, and the final volume of each sample was 1 mL; after that, they were centrifuged (5000 × g, 10 min) to collect bacteria. […] The samples were incubated at 37 °C. At specific time intervals, samples of bacterial suspension were taken, diluted, and spread on Petri dishes with Mueller–Hinton’s agar to count the number of surviving cells as colony-forming units (CFU). The whole experiment lasted 24 h.

bacterial membrane = experiment: Membrane disruption (released lactate dehydrogenase activity); format: cell-based, Staphylococcus aureus; details: 1 h incubation at 37 °C, LDH kit, triplets
Procedure: The disruption of the microbial membrane was followed by the detection of lactate dehydrogenase activity released from the intracellular space using a Cytotoxicity Detection Kit (LDH) from Roche (Korzeniewski and Callewaert [1983]; Macurkova et al. [2014]) after 1 h incubation at 37 °C with the PAL/LCA-peptide. The culture supernatant was collected and incubated with the reaction mixture from the kit. In the first step, NAD^+ is reduced to NADH + H^+ by the LDH-catalyzed conversion of lactate to pyruvate. In the second step, the catalyst (diaphorase) transfers H/H^+ from NADH + H^+ to the tetrazolium salt 2-(4-iodophenyl)-3-(4-nitrophenyl)-5-phenyl-2H-tetrazolium chloride (INT), which is reduced to formazan. The formazan dye formed is red and water-soluble and gives a broad absorption maximum at 500 nm. An increase in the amount of dead or plasma membrane-damaged cells results in an increase in the LDH activity in the cell culture supernatant.
To determine the degree of damage to the cell membrane (%) by the tested substances, averages of absorbances (triplets) were calculated from the measured values for the samples, controls, and pure medium. Subsequently, the absorbance average for the clean medium (background) was subtracted from all averages obtained in this way. The degree of damage to the cell membrane by the tested substances was expressed as follows: membranedamage%=((AVZ-∅ANK)/(∅APK-ANK))∙100 ∅AVZ⋯averageabsorbanceofsample ∅ANK⋯averageabsorbanceofnegativecontrol ∅APK⋯averageabsorbanceofpositivecontrol

HEK293T = experiment: Cytotoxicity assay (xCELLigence impedance); format: cell-based, human; details: 24 h exposure
Procedure: (§2) Experiments were carried out using an xCELLigence RTCA DP Instrument (Roche Diagnostics GmbH, Mannheim, Germany) which was placed into an incubator (37 °C and 5% CO2). Cell proliferation and cytotoxicity experiments were performed using modified 16-well plates (E-plate, Roche Diagnostics GmbH, Mannheim, Germany). Microelectrodes were attached to the bottom of the wells for the impedance-based detection of attachment, spreading, and proliferation of the cells (Stoddart [2011]). This system monitors cellular events in real time without the incorporation of labels by measuring electrical impedance across an interdigitated microelectrode integrated into the bottom of this special tissue culture plate. This impedance measurement improves upon conventional endpoint assays and provides quantitative information about the biological status of the cells, including cell number, adhesion, viability, and morphology. Ninety microliters of cultivation medium was used for the blank sample, and subsequently, 100 µL of HepG2 or HEK293T cell suspension (7 × 10^5 cells/mL) was added and placed into the incubator (37 °C, 95% humidity, 5% CO2). […] Chrysophsin-3 at a concentration of 100 µg/mL was used as a positive control and solvent (deionized water) as a negative control. Subsequent incubation was performed for at least an additional 24 h. The result of the measurement was viability curves. After the measurement, percentages of tissue culture growth inhibition were calculated for all the tested substances, as follows: %inhibition=(1-(ΔϕCIsample)/(ΔϕCIcontrol))·100
(§3) Δ∅CIsample … the difference between the first and last average CI (cell index) values of the tissue culture in the presence of the tested sample.
(§4) Δ∅CIcontrol … the difference between the first and last average CI values of the tissue culture itself.

HepG2 = experiment: Cytotoxicity assay (xCELLigence impedance); format: cell-based, human; details: 24 h exposure
Procedure: as §2, §3, §4

IC50 (A. baumannii DBM 3183): 60.0 µg/mL (≈ 68.2 µM)
IC50 (Ps. aeruginosa DBM 3081): 60.0 µg/mL (≈ 68.2 µM)
MIC (B. subtilis DBM 3006; DBM 3006, 24 h): 16.9 µg/mL (≈ 19.2 µM)
IC50 (B. subtilis DBM 3006; DBM 3006, 25 h): 25.0 µg/mL (≈ 28.4 µM)
MIC (M. luteus DBM 3053; DBM 3053, 24 h): 6.4 µg/mL (≈ 7.27 µM)
IC50 (M. luteus DBM 3053; DBM 3053, 25 h): 10.0 µg/mL (≈ 11.4 µM)
MIC (Staph. aureus DBM 3002; 24 h): 27.7 µg/mL (≈ 31.5 µM)
IC50 (Staph. aureus DBM 3002; 25 h): 50.0 µg/mL (≈ 56.8 µM)
MIC (Staph. aureus MRSA1 [1]; 24 h): 7.8 µg/mL (≈ 8.86 µM)
IC50 (Staph. aureus MRSA1 [1]; 25 h): 12.5 µg/mL (≈ 14.2 µM)
MIC (C. tropicalis DBM 2166; DBM 2166, 24 h): 55.9 µg/mL (≈ 63.5 µM)
IC50 (C. tropicalis DBM 2166; DBM 2166, 25 h): 100.0 µg/mL (≈ 114 µM)
SMILES: CCCCCCCCCCCCCCCC(=O)N[C@@H](CC(C)C)C(=O)N[C@H](C(=O)N[C@@H](CCCCN)C(=O)N[C@@H](CCCNC(=N)N)C(=O)N[C@@H](C)C(=O)NCC(N)=O)C(C)C [SHP-1.2, PAL-LVKRAG-NH2] (Palmitoyl-LVKRAG-NH2)
bacteria killed within half an hour (Staph. aureus MRSA1 [2]): 100%
Membrane damage (%) (bacterial membrane; KP (potassium phosphate buffer)): 32 ± 4%
Membrane damage (%) (bacterial membrane; MHB (Mueller–Hinton broth II)): 26 ± 3%
% inhibition (HEK293T; c 50 µg/mL): 37.6 ± 5.6%
% inhibition (HEK293T; c 100 µg/mL): 77.8 ± 11.7%
% inhibition (HEK293T; c 200 µg/mL): 73.1 ± 11.0%
% inhibition (HepG2; c 50 µg/mL): 4.1 ± 0.6%
% inhibition (HepG2; c 100 µg/mL): 42.2 ± 6.3%
% inhibition (HepG2; c 200 µg/mL): 67.9 ± 10.2%
